Experimental findings from PubChem BioAssay (NCI) are described below.

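96-well plates; 48 h exposure; 5 concentrations. Endpoints by linear interpolation between flanking doses. Not reached: highest tested concentration assigned. TGI: concentration producing complete growth inhibition.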

Experiment in all cases: NCI tumour cell line growth inhibition, 48 h
Assay [1] has as its system M19-MEL melanoma.
Assay [2] relates to DLD-1 colon.
Assay [3] deals with SNB-78 CNS.
Assay [4] has as its system LXFL 529 NSCLC.
Assay [5] deals with DMS 273 small cell lung.
Assay [6] deals with RXF-631 renal.
The test system of assay [7] is HOP-18 NSCLC.
For assay [8], the system named is KM20L2 colon.
Assay [9] deals with DMS 114 small cell lung.

Take `COC1=C(C)C(=O)C2C(C1=O)C(c1ccc(OC)c(OC)c1)[C@H]2C` (stereo not given in full): the TGI in assay [1], in assay [2], in assay [3], in [4], in assay [5] and in assay [6] was > 100 µM throughout.

Consider `COC(=O)C(C(=O)C(=O)Nc1c(Cl)cc([N+](=O)[O-])cc1Cl)c1nc2cc(C)c(C)cc2[nH]c1=O` (stereo not given), for which the TGI in assay [1], in assay [2], in assay [7], in assay [3], in [8] and in assay [9] was > 100 µM in each case. Besides, the TGI in [4], in [5] and in assay [6] was > 100 µM in each case.

For the molecule `O=S1(=O)COc2ccccc2-c2ncncc21`, the TGI in assay [1], in assay [2], in [7], in assay [3], in assay [8] and in assay [9] was > 100 µM each time. The TGI in [4] and in [6] was > 100 µM each time.

Turning to `Cc1nc2ccc(N=Nc3c(O)ccc4ccccc34)cc2[nH]1`, the TGI in assay [1] was 42.7 µM; in [2] it was 66.2 µM; in assay [3], > 100 µM; in [8] it was > 100 µM; in [9], 63 µM; in assay [4], 37.3 µM. In assay [5], the TGI was determined as 33.5 µM.

Turning to `O=C(CC(=O)C(=O)CC(=O)OCc1ccccc1)OCc1ccccc1`, the TGI in [1], in assay [2], in assay [8], in [9] and in [4] was > 100 µM throughout.

As for `Cn1c(=O)c2c(ncn2CCCCn2ccnc2[N+](=O)[O-])n(C)c1=O`, the TGI in assay [1], in assay [3], in assay [8], in assay [9], in assay [4] and in [5] was > 100 µM in each case.

With `COc1ccc(NC(=O)CSc2nnc(Cc3ccccc3)o2)cc1`, the TGI in assay [1], in assay [2], in assay [7], in assay [3], in [8] and in [9] was > 100 µM in each case. Further, the TGI in assay [4] and in assay [5] was > 100 µM throughout.

For `N#Cc1ccc(Nc2cnc3cc(N)ccc3n2)cc1`, the TGI in assay [1], in assay [2], in [3], in assay [8], in assay [9] and in [4] was > 100 µM in each case. For the same molecule, the TGI in assay [5] is > 100 µM.

As for `O=C1CCCCC1C1(O)C(=O)Nc2cc(F)ccc21` (stereo not given), the TGI in assay [1], in assay [2], in assay [7], in assay [3], in assay [8] and in assay [9] was > 100 µM each time. For the same molecule, the TGI in [4] and in assay [5] was > 100 µM each time.

In the case of `COC(=O)C(CCC1(C)OCCO1)C(C)=O` (stereo not given), the TGI in assay [1], in assay [2], in assay [7], in [3], in assay [8] and in assay [9] was > 100 µM each time. Also, the TGI in [4], in assay [5] and in assay [6] was > 100 µM throughout.

For the molecule `CNC(=S)NNC(=O)c1c(C)nc2sccn12`, the TGI in assay [1], in assay [2], in assay [7], in [8], in assay [4] and in assay [5] was > 100 µM each time. Moreover, the TGI in assay [6] is > 100 µM.
